Reference: patent publication US20020051978A1, “Methods and compositions for the identification, assessment, prevention and therapy of human cancers” (priority 2000, published 2002)
Read-outs that look alike come from different tables or passages of the source.

Experiments:
[1] = system: 60 cancer cell lines (NCI 60 cancer cell line series); settings: cited from earlier work
[2] = system: 60 cancer cell lines (NCI 60 cancer cell line series); assay: NCI-DTP in vitro cancer screen, sulforhodamine B (SRB) growth inhibition, 48 hour exposure; type: cell-based, human
How it was run: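 Values come from the NCI-DTP screen database: -log GI50, the concentration giving 50% growth inhibition, derived from SRB cell-mass dose-response curves. Each line seeded at its own density, treated day 1 at five ten-fold-spaced doses in duplicate wells, stained after 48 h.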

## N[C@@H](Cc1ccc(N(CCCl)CCCl)cc1)C(=O)O [Melphalan]
[1]; Breast BT-549 (CL5013)
  -Log (GI50): 4.4
[1]; Breast HS-578T CL5006
  -Log (GI50): 4.3
[1]; Breast MCF7(I) (CL5001)
  -Log (GI50): 5.0
[1]; Breast MCF7/ADRr (CL5002)
  -Log (GI50): 4.4
[1]; Breast MDA-MB-231 CL5005
  -Log (GI50): 4.3
[1]; Breast MDA-MB-435 (CL5011)
  -Log (GI50): 4.4
[1]; Breast MDA-N CL5012
  -Log (GI50): 4.3
[1]; Breast T-47D (CL5014)
  -Log (GI50): 4.9
[1]; CNS SF-268 CL12014
  -Log (GI50): 4.7
[1]; CNS SF-295 CL12015
  -Log (GI50): 4.7
[1]; CNS SF-539 CL12016
  -Log (GI50): 4.8
[1]; CNS SNB-19 (CL12002)
  -Log (GI50): 4.3
[1]; CNS SNB-75(I) CL12005
  -Log (GI50): 4.5
[1]; CNS U251(I) CL12009
  -Log (GI50): 4.6
[1]; Colon COLO-250 CL4010
  -Log (GI50): 4.4
[1]; Colon HCC-2998 (CL4002)
  -Log (GI50): 4.3
[1]; Colon HCT-15 CL4015
  -Log (GI50): 4.4
[1]; Colon HCT-116 (CL4003)
  -Log (GI50): 4.4
[1]; Colon HT29(I) CL4001
  -Log (GI50): 4.1
[1]; Colon KM12 (CL4017)
  -Log (GI50): 4.1
[1]; Colon SW-620 (CL4009)
  -Log (GI50): 4.5
[1]; Leukemia CCRF-CEM(I) (CL7003)
  -Log (GI50): 5.5
[1]; Leukemia HL-60(I) (CL7008)
  -Log (GI50): 5.5
[1]; Leukemia K562(I) CL7005
  -Log (GI50): 4.3
[1]; Leukemia MOLT-4 (CL7006)
  -Log (GI50): 5.6
[1]; Leukemia RPMI-8226(I) (CL7010)
  -Log (GI50): 4.4
[1]; Leukemia SR CL7019
  -Log (GI50): 5.8
[1]; Melanoma LOX IMVI CL10001
  -Log (GI50): 4.7
[1]; Melanoma M14 (CL10014)
  -Log (GI50): 4.6
[1]; Melanoma MALME-3M CL10002
  -Log (GI50): 4.6
[1]; Melanoma SK-MEL-2 (CL10005)
  -Log (GI50): 4.2
[1]; Melanoma SK-MEL-5 (CL10007)
  -Log (GI50): 4.4
[1]; Melanoma SK-MEL-28 (CL10008)
  -Log (GI50): 4.3
[1]; Melanoma UACC-62 (CL10020)
  -Log (GI50): 4.9
[1]; Melanoma UACC-257 (CL10021)
  -Log (GI50): 4.4
[1]; NCSLC NCI-H522 CL1003
  -Log (GI50): 4.6
[1]; NSCLC A549/ATCC (CL1004)
  -Log (GI50): 4.5
[1]; NSCLC EKVX (CL1008)
  -Log (GI50): 4.3
[1]; NSCLC HOP-62 (CL1026)
  -Log (GI50): 4.8
[1]; NSCLC HOP-92 (CL1029)
  -Log (GI50): 4.4
[1]; NSCLC NCI-H23(I) CL1001
  -Log (GI50): 4.6
[1]; NSCLC NCI-H226 CL1013
  -Log (GI50): 4.4
[1]; NSCLC NCI-H332M CL1017
  -Log (GI50): 4.1
[1]; NSCLC NCI-H460 CL1021
  -Log (GI50): 5.2
[1]; Ovarian IGROV1 CL6010
  -Log (GI50): 4.3
[1]; Ovarian OVCAR-3 CL6001
  -Log (GI50): 4.4
[1]; Ovarian OVCAR-4 CL6002
  -Log (GI50): 4.4
[1]; Ovarian OVCAR-5 CL6003
  -Log (GI50): 4.3
[1]; Ovarian OVCAR-8 CL6005
  -Log (GI50): 4.4
[1]; Ovarian SK-OV-3 CL6011
  -Log (GI50): 4.5
[1]; Prostate DU-145 CL11003
  -Log (GI50): 4.3
[1]; Prostate PC-3(I) CL11001
  -Log (GI50): 4.4
[1]; Renal 786-O CL9018
  -Log (GI50): 4.8
[1]; Renal A498 CL9013
  -Log (GI50): 4.0
[1]; Renal ACHN CL9023
  -Log (GI50): 5.0
[1]; Renal CAKI-1 CL9015
  -Log (GI50): 5.0
[1]; Renal RXF-393 CL9016
  -Log (GI50): 4.7
[1]; Renal SN12C CL9008
  -Log (GI50): 4.8
[1]; Renal TK10 CL9024
  -Log (GI50): 4.2
[1]; Renal UO-31 CL9004
  -Log (GI50): 4.3
[2]
  classification of cell line as Low(1), Medium(2) or High(3) sensitivity to compound: 2
[2]; Colon COLO-250 CL4010
  classification of cell line as Low(1), Medium(2) or High(3) sensitivity to compound: 2
[2]; Colon HCC-2998 (CL4002)
  classification of cell line as Low(1), Medium(2) or High(3) sensitivity to compound: 2
[2]; Colon HCT-15 CL4015
  classification of cell line as Low(1), Medium(2) or High(3) sensitivity to compound: 2
[2]; Colon HCT-116 (CL4003)
  classification of cell line as Low(1), Medium(2) or High(3) sensitivity to compound: 2
[2]; Colon HT29(I) CL4001
  classification of cell line as Low(1), Medium(2) or High(3) sensitivity to compound: 1
[2]; Colon KM12 (CL4017)
  classification of cell line as Low(1), Medium(2) or High(3) sensitivity to compound: 1
[2]; Colon SW-620 (CL4009)
  classification of cell line as Low(1), Medium(2) or High(3) sensitivity to compound: 2
[2]; Leukemia CCRF-CEM(I) (CL7003)
  classification of cell line as Low(1), Medium(2) or High(3) sensitivity to compound: 3
[2]; Leukemia HL-60(I) (CL7008)
  classification of cell line as Low(1), Medium(2) or High(3) sensitivity to compound: 3
[2]; Leukemia K562(I) CL7005
  classification of cell line as Low(1), Medium(2) or High(3) sensitivity to compound: 2
[2]; Leukemia MOLT-4 (CL7006)
  classification of cell line as Low(1), Medium(2) or High(3) sensitivity to compound: 3
[2]; Leukemia RPMI-8226(I) (CL7010)
  classification of cell line as Low(1), Medium(2) or High(3) sensitivity to compound: 2
[2]; Leukemia SR CL7019
  classification of cell line as Low(1), Medium(2) or High(3) sensitivity to compound: 3
[2]; Melanoma LOX IMVI CL10001
  classification of cell line as Low(1), Medium(2) or High(3) sensitivity to compound: 2
[2]; Melanoma M14 (CL10014)
  classification of cell line as Low(1), Medium(2) or High(3) sensitivity to compound: 2
[2]; Melanoma MALME-3M CL10002
  classification of cell line as Low(1), Medium(2) or High(3) sensitivity to compound: 2
[2]; Melanoma SK-MEL-2 (CL10005)
  classification of cell line as Low(1), Medium(2) or High(3) sensitivity to compound: 2
[2]; Melanoma SK-MEL-5 (CL10007)
  classification of cell line as Low(1), Medium(2) or High(3) sensitivity to compound: 2
[2]; Melanoma SK-MEL-28 (CL10008)
  classification of cell line as Low(1), Medium(2) or High(3) sensitivity to compound: 2
[2]; Melanoma UACC-62 (CL10020)
  classification of cell line as Low(1), Medium(2) or High(3) sensitivity to compound: 3
[2]; Melanoma UACC-257 (CL10021)
  classification of cell line as Low(1), Medium(2) or High(3) sensitivity to compound: 2
[2]; NSCLC A549/ATCC (CL1004)
  classification of cell line as Low(1), Medium(2) or High(3) sensitivity to compound: 2
[2]; NSCLC EKVX (CL1008)
  classification of cell line as Low(1), Medium(2) or High(3) sensitivity to compound: 2
[2]; NSCLC HOP-62 (CL1026)
  classification of cell line as Low(1), Medium(2) or High(3) sensitivity to compound: 2
[2]; NSCLC HOP-92 (CL1029)
  classification of cell line as Low(1), Medium(2) or High(3) sensitivity to compound: 2
[2]; NSCLC NCI-H226 CL1013
  classification of cell line as Low(1), Medium(2) or High(3) sensitivity to compound: 2
[2]; cell line NSCLC NCI-H23(I), CL1001
  sensitivity class NSCLC NCI-H23(I) CL1001: 2
[2]; cell line NSCLC NCI-H332M, CL1017
  sensitivity class NSCLC NCI-H332M CL1017: 1
[2]; cell line NSCLC NCI-H460, CL1021
  sensitivity class NSCLC NCI-H460 CL1021: 3
[2]; cell line NSCLC NCI-H522, CL1003
  sensitivity class NSCLC NCI-H522 CL1003: 2
[2]; cell line Ovarian IGROV1, CL6010
  sensitivity class Ovarian IGROV1 CL6010: 2
[2]; cell line Ovarian OVCAR-3, CL6001
  sensitivity class Ovarian OVCAR-3 CL6001: 2
[2]; cell line Ovarian OVCAR-4, CL6002
  sensitivity class Ovarian OVCAR-4 CL6002: 2
[2]; cell line Ovarian OVCAR-5, CL6003
  sensitivity class Ovarian OVCAR-5 CL6003: 2
[2]; cell line Ovarian OVCAR-8, CL6005
  sensitivity class Ovarian OVCAR-8 CL6005: 2
[2]; cell line Ovarian SK-OV-3, CL6011
  sensitivity class Ovarian SK-OV-3 CL6011: 2
[2]; cell line Prostate DU-145, CL11003
  sensitivity class Prostate DU-145 CL11003: 2
[2]; cell line Prostate PC-3(I), CL11001
  sensitivity class Prostate PC-3(I) CL11001: 2
[2]; cell line Renal 786-O, CL9018
  sensitivity class Renal 786-O CL9018: 2
[2]; cell line Renal A498, CL9013
  sensitivity class Renal A498 CL9013: 1
[2]; cell line Renal ACHN, CL9023
  sensitivity class Renal ACHN CL9023: 3
[2]; cell line Renal CAKI-1, CL9015
  sensitivity class Renal CAKI-1 CL9015: 3
[2]; cell line Renal RXF-393, CL9016
  sensitivity class Renal RXF-393 CL9016: 2
[2]; cell line Renal SN12C, CL9008
  sensitivity class Renal SN12C CL9008: 2
[2]; cell line Renal TK10, CL9024
  sensitivity class Renal TK10 CL9024: 1
[2]; cell line Renal UO-31, CL9004
  sensitivity class Renal UO-31 CL9004: 2
